According to PubChem BioAssay AID485374 (Sanford-Burnham Center for Chemical Genomics, 2010):
Several values for one entry are separate records, joined by “and”; a condition that tells them apart may be missing. Equal entries are not always repeated. Activity calls are given as the source filed them. The rule behind the calls is not given here.

Assay: inhibitors of enzymatic SUMO conjugation, SAR follow-up, biochemical, AlphaScreen (AID 485374)
Settings: AlphaScreen biochemical SUMOylation assay

Row | SMILES | IC50
1 | Cc1cc(C)c2c(c1)C(=O)C(=O)N2CCN1CCOCC1 | > 100 µM (inactive)
2 | COC(=O)C1=C(C(=O)OC)C2([C@H](C)Nc3ccccc3)C=CC1O2 (some centres not stated) | 23.9 µM
3 | CCCCn1c(NC(=O)c2cccc(Cl)c2)c(C#N)c2nc3ccccc3nc21 | 1.62 µM
4 | COC(=O)C=C(NC(CO)(CO)CO)C(=O)OC | > 100 µM (inactive)
5 | COc1ccc2c(c1)C(NC(C)=O)C(=O)N2CCN1CCOCC1 (configuration not stated) | 5.02 µM
6 | COC(=O)C1=C(C(=O)OC)C2([C@H](Cc3ccccc3)Nc3ccc(C)cc3)C=CC1O2 (some centres not stated) | 7.19 µM
7 | C=CC[C@H](Nc1ccc(Cl)cc1)C12C=CC(O1)C(C(=O)OC)=C2C(=O)OC (some centres not stated) | 4.18 µM
8 | CCCCn1c(NC(=O)c2ccc(OC)cc2)c(S(=O)(=O)c2ccc(C)cc2)c2nc3ccccc3nc21 | 8.08 µM
9 | COc1cc(/C=C2\C(=O)N(c3ccccc3)N=C2C)ccc1OCc1ccccc1 | > 100 µM (inactive)
10 | CCCCNC(=O)c1c(NC(=O)c2ccccc2)n(Cc2ccccc2)c2nc3ccccc3nc12 | 91.1 µM
11 | COc1ccc2c(c1)C(NC(C)=O)C(=O)N2CCc1ccccc1 (configuration not stated) | > 100 µM (inactive)
12 | COc1ccc(CN2C(=O)C(NC(C)=O)c3ccccc32)cc1 (configuration not stated) | > 100 µM (inactive)
13 | COC(=O)C1=C(C(=O)OC)C2([C@@H](C)Nc3ccc(Cl)cc3)C=CC1O2 (some centres not stated) | 18.2 µM
14 | CCCCn1c(NC(=O)c2ccccc2Cl)c(C#N)c2nc3ccccc3nc21 | 20.1 µM
15 | CCCCn1c(NC(=O)c2ccccc2)c(C#N)c2nc3ccccc3nc21 | 2.93 µM and 1.2 µM
16 | CCCCn1c(N)c(C#N)c2nc3ccccc3nc21 | 13.3 µM
17 | COC(=O)C1=C(C(=O)OC)C2([C@H](Cc3ccccc3)Nc3ccc(Cl)cc3)C=CC1O2 (some centres not stated) | 2.56 µM
18 | COc1ccc2c(c1)C(=O)C(=O)N2CCN1CCOCC1 | 76.8 µM
19 | COC(=O)C1=C(C(=O)OC)C2([C@@H](C)Nc3ccccc3)C=CC1O2 (some centres not stated) | 7.79 µM
20 | CCCCn1c(NC(=O)CC)c(S(=O)(=O)c2ccc(C)cc2)c2nc3ccccc3nc21 | 33.1 µM
21 | CCCCn1c(NC(=O)C2CCCCC2)c(C#N)c2nc3ccccc3nc21 | 2.39 µM
22 | C=CCC(c1ccco1)N(Cc1ccccc1)/C(=C/C(=O)OC)C(=O)OC (configuration not stated) | > 100 µM (inactive)
23 | COc1ccc2c(c1)C(NC(C)=O)C(=O)N2CCOc1ccccc1 (configuration not stated) | 70.2 µM
24 | C=CC[C@@H](N(Cc1ccccc1)/C(=C\C(=O)OC)C(=O)OC)C12C=CC(O1)C(C(=O)OC)=C2C(=O)OC (some centres not stated) | 21.3 µM
25 | c1ccc(CC(Nc2ccccc2)c2ccco2)cc1 (configuration not stated) | > 100 µM (inactive)
26 | COC(=O)C1=C(C(=O)OC)C2([C@H](C)Nc3ccc(Cl)cc3)C=CC1O2 (some centres not stated) | 11.5 µM

Row | SMILES | IC50
27 | CC(=O)NC1C(=O)N(CCN2CCOCC2)c2ccc(C)cc21 (configuration not stated) | > 100 µM (inactive)
28 | C=C[C@@H](Nc1ccccc1)C12C=CC(O1)C(C(=O)OC)=C2C(=O)OC (some centres not stated) | 7.23 µM
29 | COC(=O)C1=C(C(=O)OC)C2([C@@H](Cc3ccc(OC)cc3)Nc3ccccc3)C=CC1O2 (some centres not stated) | 0.614 µM
30 | C=C[C@H](Nc1ccccc1)C12C=CC(O1)C(C(=O)OC)=C2C(=O)OC (some centres not stated) | 10.4 µM
31 | COC(=O)C1=C(C(=O)OC)C2([C@H](Cc3ccc(C)cc3)Nc3ccccc3)C=CC1O2 (some centres not stated) | 2.19 µM
32 | COC(=O)[C@@H]1C2CCC([C@@H](Cc3ccccc3)Nc3ccccc3)(O2)[C@@H]1C(=O)OC (some centres not stated) | > 100 µM (inactive)
33 | CCC(=O)Nc1c(S(=O)(=O)c2ccccc2)c2nc3ccccc3nc2n1Cc1ccccc1 | 43.4 µM
34 | COCCNC(=O)c1c(NC(=O)c2ccccc2)n(Cc2ccccc2)c2nc3ccccc3nc12 | 51.3 µM
35 | Nc1c(C(=O)NCc2ccco2)c2nc3ccccc3nc2n1Cc1ccccc1 | 41.2 µM
36 | COCCn1c(NC(=O)c2ccc(Cl)cc2)c(S(=O)(=O)c2ccc(C)cc2)c2nc3ccccc3nc21 | 6.59 µM
37 | CCCCn1c(NC(C)=O)c(C#N)c2nc3ccccc3nc21 | 8.11 µM
38 | CCCCn1c(NC(=O)c2ccccc2)c(S(=O)(=O)c2ccc(C)cc2)c2nc3ccccc3nc21 | 9.52 µM and 6.5 µM
39 | COC(=O)C1=C(C(=O)OC)C2([C@@H](Cc3ccccc3)Nc3ccc(Cl)cc3)C=CC1O2 (some centres not stated) | 0.713 µM
40 | COC(=O)C1=C(C(=O)OC)C2([C@H](Cc3ccccc3)Nc3ccccc3)C=CC1O2 (some centres not stated) | 5.04 µM
41 | C=CC[C@H](Nc1ccc(C)cc1)C12C=CC(O1)C(C(=O)OC)=C2C(=O)OC (some centres not stated) | 11.7 µM
42 | C=CCC(Nc1ccccc1)C12C=CC(O1)C(C(=O)OC)=C2C(=O)OC (configuration not stated) | 1.36 µM
43 | CCC[C@H](Nc1ccccc1)C12C=CC(O1)C(C(=O)OC)=C2C(=O)OC (some centres not stated) | 2.87 µM
44 | CCCCn1c(NC(=O)c2ccco2)c(S(=O)(=O)c2ccc(C)cc2)c2nc3ccccc3nc21 | 7.9 µM
45 | COC(=O)C1=C(C(=O)OC)C2([C@@H](Cc3ccccc3)Nc3ccc(OC)cc3)C=CC1O2 (some centres not stated) | 4.87 µM
46 | COc1ccc2c(c1)C(NC(C)=O)C(=O)N2CC1COc2ccccc2O1 (configuration not stated) | 66.3 µM
47 | CCCCn1c(NC(=O)c2ccc(F)cc2)c(C#N)c2nc3ccccc3nc21 | 0.757 µM
48 | CCCCn1c(NC(=O)c2ccco2)c(C#N)c2nc3ccccc3nc21 | 3.45 µM
49 | CCC[C@@H](Nc1ccccc1)C12C=CC(O1)C(C(=O)OC)=C2C(=O)OC (some centres not stated) | 0.533 µM
50 | CCCCn1c(NC(=O)c2ccc(F)cc2)c(S(=O)(=O)c2ccc(C)cc2)c2nc3ccccc3nc21 | 6.24 µM
51 | C=CC[C@@H](Nc1ccc(Cl)cc1)C12C=CC(O1)C(C(=O)OC)=C2C(=O)OC (some centres not stated) | 3.84 µM
52 | COC(=O)C1=C(C(=O)O)C2C=CC1([C@@H](Cc1ccccc1)Nc1ccccc1)O2 (some centres not stated) | 2.87 µM

Row | SMILES | IC50
53 | S=c1[nH]nc(-c2cc(-c3ccccc3)n[nH]2)n1N=Cc1ccc(Br)s1 | 2.07 µM
54 | C=CC[C@@H](Nc1ccc(OC)cc1)C12C=CC(O1)C(C(=O)OC)=C2C(=O)OC (some centres not stated) | 22.3 µM
55 | C=CC[C@@H](Nc1ccc(C)cc1)C12C=CC(O1)C(C(=O)OC)=C2C(=O)OC (some centres not stated) | 12.4 µM
56 | CCCCn1c(NC(=O)c2ccccc2Cl)c(S(=O)(=O)c2ccccc2)c2nc3ccccc3nc21 | 5.63 µM
57 | COC(=O)C1=C(C(=O)OC)C2([C@@H](Cc3ccccc3)Nc3ccc(C)cc3)C=CC1O2 (some centres not stated) | 2.96 µM
58 | COC(=O)C1=C(C(=O)OC)C2([C@@H](C)Nc3ccc(OC)cc3)C=CC1O2 (some centres not stated) | 55.6 µM
59 | CCCCn1c(N)c(S(=O)(=O)c2ccc(C)cc2)c2nc3ccccc3nc21 | > 100 µM (inactive)
60 | COc1cc(/C=C2\C(=O)N(c3ccccc3)N=C2C)ccc1O | 21.1 µM and 25.5 µM
61 | CCCCCn1c(NC(=O)c2ccco2)c(C(=O)OCC)c2nc3ccccc3nc21 | 4.9 µM
62 | C=CC[C@@H](Nc1ccccc1)C12C=CC(O1)C(C(=O)OC)=C2C(=O)OC (some centres not stated) | 1.8 µM
63 | C=CC[C@H](N(Cc1ccccc1)/C(=C\C(=O)OC)C(=O)OC)C12C=CC(O1)C(C(=O)OC)=C2C(=O)OC (some centres not stated) | 15.1 µM
64 | COC(=O)C1=C(C(=O)OC)C2([C@@H](Cc3ccc(C)cc3)Nc3ccccc3)C=CC1O2 (some centres not stated) | 0.369 µM
65 | COC(=O)C1=C(C(=O)OC)C2(C(Cc3ccc(F)cc3)Nc3ccccc3)C=CC1O2 (configuration not stated) | 0.527 µM
66 | CCCN1C(=O)C(NC(C)=O)c2cc(OC)ccc21 (configuration not stated) | > 100 µM (inactive)
67 | COC(=O)C1=C(C(=O)OC)C2(C(Cc3ccc(OC(F)(F)F)cc3)Nc3ccccc3)C=CC1O2 (configuration not stated) | 0.611 µM
68 | CCCCn1c(NC(=O)c2ccc(Cl)cc2)c(C#N)c2nc3ccccc3nc21 | 2.1 µM
69 | COC(=O)C1=C(C(=O)OC)C2([C@@H](Cc3ccccc3)Nc3ccccc3)C=CC1O2 (some centres not stated) | 0.329 µM
70 | C=CC[C@H](Nc1ccc(OC)cc1)C12C=CC(O1)C(C(=O)OC)=C2C(=O)OC (some centres not stated) | 17.7 µM
71 | COC(=O)C1=C(C(=O)OC)C2([C@H](Cc3ccccc3)Nc3ccc(OC)cc3)C=CC1O2 (some centres not stated) | 13 µM
72 | COc1cc(/C=C2\C(=O)N(c3ccccc3)N=C2C)ccc1OC(=O)c1cccs1 | 15.8 µM
73 | CCCC1=NN(c2ccccc2)C(=O)/C1=C\c1ccc(O)cc1 | 19.2 µM
74 | N#Cc1c(NC(=O)c2ccccc2Cl)n(C2CCCCC2)c2nc3ccccc3nc12 | 1.95 µM
75 | N#Cc1c(NC(=O)c2ccccc2Cl)n(Cc2ccccc2)c2nc3ccccc3nc12 | 2.44 µM
76 | COC(=O)C1=C(C(=O)OC)C2([C@@H](C)Nc3ccc(C)cc3)C=CC1O2 (some centres not stated) | 35.1 µM
77 | C=CC[C@H](Nc1ccccc1)C12C=CC(O1)C(C(=O)OC)=C2C(=O)OC (some centres not stated) | 5.95 µM
